According to ChEMBL document CHEMBL4251574, “Design, synthesis, and biological evaluation of new 1,2,3-triazolo-2'-deoxy-2'-fluoro- 4'-azido nucleoside derivatives as potent anti-HBV agents” (Eur J Med Chem, 2018):
pEC50: −log10 of the molar value.

What was measured:
[1] = tested on: Human immunodeficiency virus 1; assay: Antiviral activity against HIV1 infected in human C8166 cells assessed as reduction in viral infection by measuring inhibition of syncytia formation incubated for 3 to 7 days by p24 detection based ELISA; format: functional, organism-based; settings: Human immunodeficiency virus 1, C8166
Hepatitis B virus [2] = assay: Antiviral activity against Hepatitis B virus infected in human HepG2.2.15 cells assessed as inhibition of HBeAg secretion at 5 uM after 9 days by ELISA relative to control; format: functional; settings: HepG2.2.15, 216 h
Hepatitis B virus [3] = assay: Antiviral activity against Hepatitis B virus infected in human HepG2.2.15 cells assessed as inhibition of HBsAg secretion at 5 uM after 9 days by ELISA relative to control; format: functional; settings: HepG2.2.15, 216 h
HepG2 2.2.15 = assay: Cytotoxicity against human HepG2.2.15 cells after 9 days by MTT assay; format: functional; settings: HepG2 2.2.15, 216 h

Structure (SMILES) | pEC50 [1] | inhibition at 5 µM (Hepatitis B virus [2]) [%] | inhibition at 5 µM (Hepatitis B virus [3]) [%] | CC50 (HepG2 2.2.15) [µM]
[N-]=[N+]=N[C@]1(CO)O[C@@H](n2ccc(N)nc2=O)[C@@H](F)[C@@H]1O [RO-0622] | 9.52 |  |  | 
COC(=O)c1cn([C@@H]2O[C@@](CO)(N=[N+]=[N-])[C@@H](O)[C@@H]2F)nn1 |  | 12.3 | 22 | 115
[N-]=[N+]=N[C@]1(CO)O[C@@H](n2cc(-c3nnn[nH]3)nn2)[C@@H](F)[C@@H]1O |  | 20 | 40 | > 1000
COC(=N)c1cn([C@@H]2O[C@@](CO)(N=[N+]=[N-])[C@@H](O)[C@@H]2F)nn1 |  | 11.4 | 17.7 | 101
CNC(=N)c1cn([C@@H]2O[C@@](CO)(N=[N+]=[N-])[C@@H](O)[C@@H]2F)nn1 |  | 13.8 | 22.2 | > 1000
